{"source": "patent US20250207102A1", "about": "“METHODS FOR CO-CULTURING GENOTOXIC BACTERIA AND ORGANOIDS” (priority 2022, published 2025)", "origin": "cited, not measured here", "key": {"[1]": {"tested_on": "Smad2"}, "[2]": {"tested_on": "ALK-1,-2,-3,-6 and MAPK"}}, "data": [{"molecule": "Cc1cccc(-c2nn(C(=S)Nc3ccccc3)cc2-c2ccnc3ccccc23)n1", "note": "[A83-01]", "values": [{"measurement": "phosphorylation of Smad2", "setting": "[1]", "value": "blocks phosphorylation of Smad2"}, {"measurement": "inhibition of ALK-1,-2,-3,-6 and MAPK activity", "setting": "[2]", "value": "only weakly inhibits"}]}]}
